From publication PMC2628613 (Diabetes, 2009)

Legend:
[1] = test system: PBMCs; format: cell-based, human
[2] = test system: purified HLA-A2; parameters: species or system human; details: >50, 20–50, <20% binding at 10^−6 mol/l = high, intermediate, low binders

Substance | Frequencies of recognition, Control subjects [1] | Frequencies of recognition, Patients [1] | Responses (stimulation score), Control subjects [1] | Responses (stimulation score), Patients [1] | Binding to HLA-A2 (in words) [2] | Frequencies of recognition, C [1] | Frequencies of recognition, D [1] | Frequencies of recognition, L [1] | Frequencies of recognition, R [1] | Recognized in % of patients [1] | Recognized in % of recent-onset patients [1] | Responses (stimulation score), C [1] | Responses (stimulation score), L [1] | Responses (stimulation score), R [1] | Responses (stimulation score), D [1]
AAVDLSHFL [Nef 83–91, reference compound] | 0/4 | 0/12 | 0 (0–5) | 3 (0–20) |  |  |  |  |  |  |  |  |  |  | 
ALWGPDPAAA [15–24] | 0/6 | 8/17 | 0 (0–0) | 12.2 (0–52.8) | high binders | 0/4 | 0/2 | 1/4 | 7/13 | > 40% | > 50% | 0 (0–0) | 12.8 (2.4–32.2) | 8.7 (0–52.8) | 
ELRSRYWAI [NP 380–388, reference compound] | 2/7 | 7/13 | 5 (2–131) | 8 (0–119) |  |  |  |  |  |  |  |  |  |  | 
EWRFDSRLA [Nef 182–189, reference compound] | 0/3 | 0/8 | 0 (0–0) | 1 (0–35) |  |  |  |  |  |  |  |  |  |  | 
Peptide 1–8: human preproinsulin leader sequence peptide, residues 1–8, MALWMRLL |  |  |  |  | no significant binding |  |  |  |  |  |  |  |  |  | 
RLLPLLALL [6–14] | 0/6 | 5/18 | 4.7 (3.9–7.2) | 30.6 (7.8–144) | high binders | 0/4 | 0/2 | 1/4 | 4/14 |  |  | 4.7 (3.9–7.2) | 28.9 (21.1–51.1) | 30.6 (7.8–144) | 
RLLPLLALLAL [6–16] | 0/12 | 9/20 | 0 (0–9.5) | 7.3 (0–111.7) | high binders | 0/8 | 0/4 | 2/4 | 7/16 | > 40% | at least 30% | 0 (0–9.5) | 12.2 (10–54.5) | 5 (0–111.7) | 0 (0–0)
